This note sets out measurements from ChEMBL document CHEMBL1201862, “PubChem BioAssay data set” (2004).

Some test systems named below: ACHN; COLO 205; HCC 2998; HCT-116; HCT-15; K562; LOX IMVI; M14; MDA-MB-231; MDA-MB-435; MOLT-4; NCI-H226; NCI-H460; OVCAR-3; OVCAR-5; RPMI-8226; SF-295; SF-539; SW-620; T47D.
Assay in all cases: NCI tumour cell line growth inhibition, 48 h

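All cell lines were grown in 96-well plates and treated with compound for 48 hours. GI50 = concentration required for 50% inhibition of growth.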 Activity calls are given as the source filed them. Rule as the data show it: active = GI50 up to about 1.1 µM and inactive = higher. A value given as a limit tells only on which side of the number the result lay.

With `CC(=O)NC1C(OCc2ccccc2)OC(CO)C(O)C1OCC(=O)N1CCCC1C(=O)NC(CCC(=O)NCCCCCNc1c2ccccc2nc2cccc([N+](=O)[O-])c12)C(N)=O` (stereo not given), the GI50 was 0.00865 µM (active) with ACHN; 0.0144 µM (active) in the assay with COLO 205; 0.00706 µM (active) with HCC 2998; 0.00433 µM (active) with HCT-116; 0.0164 µM in the assay on HCT-15; 0.00366 µM (active) with K562. Besides, the GI50 in the assay with LOX IMVI is 0.166 µM (active); with M14, 0.0228 µM (active); in the assay on MDA-MB-231, 0.0175 µM (active); in the assay with MDA-MB-435, 0.0154 µM (active); in the assay with MOLT-4 it was 0.0561 µM (active); with NCI-H226, 0.114 µM (active). The GI50 in the assay on NCI-H460 was 0.00125 µM (active); in the assay with OVCAR-3, 0.0301 µM (active); in the assay on OVCAR-5, 0.0231 µM (active); in the assay on RPMI-8226, 0.00331 µM (active); in the assay with SF-295, 0.048 µM (active); with SF-539, 0.0456 µM (active). The GI50 with SW-620 was 0.00399 µM (active); in the assay on T47D it was 0.578 µM (active).
Take `COc1ccc(/C(Cl)=C(\C=O)c2cc(OC)c(OC)c(OC)c2)cc1OC`: the GI50 with ACHN was 26.3 µM (inactive); in the assay with COLO 205, 27.5 µM (inactive); in the assay with HCC 2998, 26.4 µM (inactive); with HCT-116, 36.6 µM (inactive); in the assay on HCT-15, 19.8 µM; in the assay on K562, 25.7 µM (inactive). The GI50 in the assay on LOX IMVI is 19.7 µM (inactive); with M14, 56.4 µM (inactive); in the assay on MDA-MB-231 it was 68.5 µM (inactive); in the assay on MDA-MB-435, 48.4 µM (inactive); in the assay on MOLT-4, 22.4 µM (inactive); in the assay with NCI-H226, 19.8 µM (inactive). In addition, the GI50 in the assay with NCI-H460 is 18.5 µM (inactive); in the assay with OVCAR-3 it was 27.7 µM (inactive); in the assay with OVCAR-5, 67.8 µM (inactive); in the assay with RPMI-8226, 10.8 µM (inactive); in the assay on SF-295, 34.1 µM (inactive); with SF-539, 26.2 µM (inactive). The GI50 is > 61.2 µM (inactive) with SW-620 and 20.4 µM (inactive) with T47D.
For the molecule `CCOC(=O)Nc1nc(-c2ccccc2)c(C)s1`, the GI50 is > 100 µM (inactive) in the assay with ACHN; 96.6 µM (inactive) in the assay on COLO 205; > 100 µM (inactive) in the assay with HCC 2998; 88.7 µM (inactive) in the assay on HCT-116; 40.9 µM with HCT-15; 18.3 µM (inactive) in the assay with K562. Moreover, the GI50 in the assay with LOX IMVI is > 100 µM (inactive); with M14, > 100 µM (inactive); in the assay on MDA-MB-231, > 100 µM (inactive); in the assay on MDA-MB-435 it was > 100 µM (inactive); with MOLT-4, 7.35 µM (inactive); in the assay on NCI-H226, > 100 µM (inactive). Moreover, the GI50 is 64 µM (inactive) in the assay with NCI-H460; 98.9 µM (inactive) in the assay with OVCAR-3; > 100 µM (inactive) in the assay on OVCAR-5; > 100 µM (inactive) in the assay with RPMI-8226; > 100 µM (inactive) in the assay on SF-295; > 100 µM (inactive) in the assay with SF-539. Further, the GI50 in the assay with SW-620 was > 100 µM (inactive); with T47D it was 47.3 µM (inactive).
`C/C(=N\Nc1nc2ccccc2s1)c1cc(C)ncn1`: the GI50 is 0.199 µM (active) in the assay on ACHN; 0.0543 µM (active) with COLO 205; 1.72 µM (inactive) in the assay on HCC 2998; 0.1 µM (active) with HCT-116; 0.394 µM with HCT-15; 0.129 µM (active) with K562. Further, the GI50 in the assay on LOX IMVI is 0.499 µM (active); with M14, 0.474 µM (active); in the assay on MDA-MB-231 it was 0.286 µM (active); in the assay on MDA-MB-435, 2.81 µM (inactive); in the assay on MOLT-4 it was 0.104 µM (active); in the assay on NCI-H226 it was 0.427 µM (active). Also, the GI50 in the assay with NCI-H460 was 0.426 µM (active); with OVCAR-3, 0.408 µM (active); in the assay on OVCAR-5, 1.27 µM (inactive); with RPMI-8226, 0.337 µM (active); in the assay on SF-295, 2.73 µM (inactive); in the assay with SF-539, 1.38 µM (inactive). Also, the GI50 is 0.352 µM (active) in the assay on SW-620 and 0.206 µM (active) with T47D.
As to `CCCCc1cc2c(cc1O)CCC1C2CC[C@@]2(C)C1CC[C@@H]2O` (stereo not given in full), the GI50 is 16.2 µM (inactive) in the assay on ACHN; 24.7 µM (inactive) in the assay on COLO 205; 19.9 µM (inactive) with HCC 2998; 14.3 µM (inactive) with HCT-116; 23.8 µM in the assay on HCT-15; 9.38 µM (inactive) in the assay with K562. The GI50 is 16.6 µM (inactive) in the assay on LOX IMVI; 18.9 µM (inactive) with M14; 29.3 µM (inactive) in the assay with MDA-MB-231; 16.9 µM (inactive) in the assay on MDA-MB-435; 11.7 µM (inactive) with MOLT-4; 16.9 µM (inactive) with NCI-H226. The GI50 in the assay on NCI-H460 was 21.9 µM (inactive); in the assay on OVCAR-3 it was 13.7 µM (inactive); in the assay with OVCAR-5, 17.7 µM (inactive); with RPMI-8226, 5.14 µM (inactive); with SF-295 it was 13.3 µM (inactive); with SF-539, 26.2 µM (inactive). The values for the GI50 with SW-620 and in the assay on T47D were 20.2 µM (inactive) and 8.97 µM (inactive), respectively.
Consider `[O-][n+]1onc2c3nn(-c4ccccc4)nc3ccc21`, for which the GI50 was 88.3 µM (inactive) in the assay with ACHN; 61.8 µM (inactive) in the assay on COLO 205; 15.6 µM (inactive) in the assay with HCC 2998; > 100 µM (inactive) with HCT-116; 49.5 µM in the assay with HCT-15; > 100 µM (inactive) in the assay on K562. Moreover, the GI50 in the assay with LOX IMVI was 13.2 µM (inactive); in the assay with M14, > 100 µM (inactive); in the assay on MDA-MB-231, > 100 µM (inactive); in the assay with MDA-MB-435 it was > 100 µM (inactive); with MOLT-4, 5.08 µM (inactive); with NCI-H226, > 100 µM (inactive). Besides, the GI50 is > 100 µM (inactive) in the assay on NCI-H460; 22.2 µM (inactive) with OVCAR-3; > 100 µM (inactive) in the assay with OVCAR-5; 6.32 µM (inactive) in the assay on RPMI-8226; > 100 µM (inactive) in the assay on SF-295; > 100 µM (inactive) with SF-539. For the same molecule, the results for the GI50 with SW-620 and with T47D were 65.8 µM (inactive) and 7.4 µM (inactive), respectively.
For the molecule `COc1ccc2nc(-c3ccccc3)c(=O)[nH]c2c1`, the GI50 in the assay on ACHN was > 100 µM (inactive); with COLO 205 it was > 100 µM (inactive); in the assay on HCC 2998 it was > 100 µM (inactive); in the assay on HCT-116 it was > 100 µM (inactive); in the assay with HCT-15 it was more than 100 µM; in the assay on K562, > 100 µM (inactive). Also, the GI50 in the assay on LOX IMVI, in the assay on M14, in the assay with MDA-MB-231, with MDA-MB-435, in the assay on MOLT-4 and in the assay on NCI-H226 was > 100 µM (inactive) in each case. For the same molecule, the GI50 in the assay on NCI-H460, in the assay with OVCAR-3, in the assay on OVCAR-5, with RPMI-8226, with SF-295 and with SF-539 was > 100 µM (inactive) in each case. Moreover, the GI50 in the assay with SW-620 and in the assay on T47D was > 100 µM (inactive) each time.
For the molecule `CSc1nc2ccccc2c(=O)n1-c1cccc(C)c1`, the GI50 with ACHN is 97.9 µM (inactive); in the assay with COLO 205 it was 48.9 µM (inactive); in the assay on HCC 2998, 15.6 µM (inactive); in the assay with HCT-116, 47.8 µM (inactive); in the assay with HCT-15, 36.2 µM; in the assay on K562, 33 µM (inactive). Further, the GI50 was 53.1 µM (inactive) with LOX IMVI; 95.5 µM (inactive) in the assay on M14; > 100 µM (inactive) in the assay with MDA-MB-231; 29.1 µM (inactive) in the assay with MDA-MB-435; 28.8 µM (inactive) in the assay on MOLT-4; > 100 µM (inactive) with NCI-H226. Also, the GI50 with NCI-H460 is 36 µM (inactive); in the assay with OVCAR-3 it was > 100 µM (inactive); in the assay on OVCAR-5, > 100 µM (inactive); with RPMI-8226, 39.4 µM (inactive); with SF-295, 95.5 µM (inactive); in the assay on SF-539, 78.9 µM (inactive). Moreover, the GI50 in the assay on SW-620 is 31.9 µM (inactive); in the assay on T47D it was 29.2 µM (inactive).
Consider `COC(=O)[C@@H]1[C@H](OC(C)=O)CCC2[C@@]3(C[C@@H](c4ccoc4)O[C@@H]3OC)[C@H](C)CC[C@]21C(=O)OC` (stereo not given in full), for which the GI50 was > 25 µM (inactive) in the assay on ACHN; > 25 µM (inactive) in the assay with COLO 205; > 25 µM (inactive) in the assay with HCC 2998; > 25 µM (inactive) in the assay on HCT-116; more than 25 µM in the assay with HCT-15; > 25 µM (inactive) in the assay with K562. Besides, the GI50 in the assay on LOX IMVI, in the assay on M14, with MDA-MB-231, in the assay on MDA-MB-435, in the assay with MOLT-4 and in the assay on NCI-H226 was > 25 µM (inactive) each time. The GI50 with NCI-H460, with OVCAR-3, in the assay on OVCAR-5, in the assay on RPMI-8226, with SF-295 and in the assay with SF-539 was > 25 µM (inactive) in each case. Moreover, the GI50 with SW-620 and in the assay on T47D was > 25 µM (inactive) each time.
With `CN(C)/C=N/S(=O)(=O)c1nn2c(C=O)c(-c3ccc(Cl)cc3)nc2s1`, the GI50 in the assay on ACHN is 1.15 µM (inactive); in the assay on COLO 205 it was 1.28 µM (inactive); in the assay on HCC 2998 it was 5.25 µM (inactive); in the assay on HCT-116, 0.693 µM (active); in the assay on HCT-15, 1.61 µM; in the assay on K562, 0.403 µM (active). Besides, the GI50 was 1.25 µM (inactive) in the assay with LOX IMVI; 0.962 µM (active) in the assay on M14; 2.11 µM (inactive) with MDA-MB-231; 2.16 µM (inactive) with MDA-MB-435; 0.52 µM (active) with MOLT-4; 4.25 µM (inactive) with NCI-H226. Also, the GI50 in the assay with NCI-H460 was 6.28 µM (inactive); with OVCAR-3, 1.49 µM (inactive); with OVCAR-5, 1.75 µM (inactive); in the assay with RPMI-8226, 0.785 µM (active); with SF-295, 14.4 µM (inactive); in the assay with SF-539, 2.13 µM (inactive). Also, the results for the GI50 in the assay on SW-620 and with T47D were 0.444 µM (active) and 1.67 µM (inactive), respectively.
